Measured values as given in patent US20100234433A1, “GLYCOGEN PHOSPHORYLASE INHIBITOR COMPOUND AND PHARMACEUTICAL COMPOSITION THEREOF” (priority 2007, published 2010).

What was measured:
[1] = target: T1, human liver glycogen phosphorylase a (HLGPa) (Homo sapiens, UniProt P06737); experiment: Human liver glycogen phosphorylase a enzymatic activity assay; assay type: biochemical; settings: 15 nM HLGPa, coupled resorufin fluorescence readout; assay run with and without 10 mM glucose, condition of the value not stated
T1 construct: creating a full-length cDNA fused at the 5′ end to codons for methionine-glycine-alanine-histidine; 6x histidine tag (leader Met-Gly-Ala-His6-Gly-Gly) (N); Tev protease cleavage site (Glu-Asn-Leu-Tyr-Phe-Gln-Gly-Gly) (N); made in house; host or cells: E. coli (bacterial expression plasmid pTXK1007LTev)
T1 sequence (P06737 1-847): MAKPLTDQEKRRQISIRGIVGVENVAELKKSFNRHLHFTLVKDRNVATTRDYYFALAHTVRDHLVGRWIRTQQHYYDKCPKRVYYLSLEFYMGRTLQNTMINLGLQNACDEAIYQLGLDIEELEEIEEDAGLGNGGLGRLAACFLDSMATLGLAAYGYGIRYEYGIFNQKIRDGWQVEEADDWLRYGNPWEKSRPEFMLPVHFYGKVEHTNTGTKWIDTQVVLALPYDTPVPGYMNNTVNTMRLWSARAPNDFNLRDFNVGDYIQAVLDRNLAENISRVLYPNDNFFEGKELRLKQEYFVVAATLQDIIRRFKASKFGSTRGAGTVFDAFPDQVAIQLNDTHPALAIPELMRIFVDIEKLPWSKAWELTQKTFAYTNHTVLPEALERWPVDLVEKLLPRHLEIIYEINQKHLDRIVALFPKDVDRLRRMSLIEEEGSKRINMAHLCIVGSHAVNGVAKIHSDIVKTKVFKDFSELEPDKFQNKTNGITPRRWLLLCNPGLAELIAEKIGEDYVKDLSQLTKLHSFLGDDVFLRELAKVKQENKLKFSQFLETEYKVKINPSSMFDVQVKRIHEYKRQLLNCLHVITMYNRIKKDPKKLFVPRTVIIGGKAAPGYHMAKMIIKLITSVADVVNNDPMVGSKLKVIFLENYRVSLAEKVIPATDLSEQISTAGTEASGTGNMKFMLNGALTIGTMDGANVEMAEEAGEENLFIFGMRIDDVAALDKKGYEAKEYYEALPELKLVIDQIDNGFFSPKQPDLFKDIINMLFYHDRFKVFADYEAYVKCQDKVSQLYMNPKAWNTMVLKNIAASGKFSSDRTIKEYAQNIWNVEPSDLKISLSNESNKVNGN
Protocol: The purified glycogen phosphorylase (GP) enzyme, wherein glycogen phosphorylase is in the activated “a” state, referred to as human liver glycogen phosphorylase a (HLGPa), can be obtained according to the following procedures.
Frozen purified glycogen phosphorylase (HLGPb) was thawed in at 4° C. then dialyzed overnight into 50 mM HEPES, 100 mM NaCl, pH 7.4. 15 mg of the dialyzed HLGPb, 3 mM ATP and 5 mM MgCl2 was incubated with 500 μl of the prepared Affi-Gel immobilized phosphorylase kinase beads equilibrated with 50 mM HEPES, 100 mM NaCl, pH 7.4. The degree of phosphorylation was monitored by following the increase in activity at 10 minute intervals using the assay system outlined below. […] MgCl2, 3.5 mM KH2PO4, 0.5 mM DTT, 0.4 mg/mL glycogen, 7.5 mM Glucose, 0.50 mM β-nicotinamide adenine dinucleotide (β-NAD), 3 U/mL phosphoglucomutase, and 5 U/mL glucose-6-phosphate dehydrogenase, Activity was monitored by following the reduction of NAD^+ at 340 nm. […]
An enzymatic assay was developed to measure the response of the activated form of glycogen phosphorylase (HLGPa) to small molecule (<1000 Da.) compounds. […] The change in fluorescence due to product formation was measured on a fluorescence plate reader (Molecular Devices SpectraMax M2) with excitation at 560 nm and emission at 590 nm.

male CD rats = experiment: In vivo glucagon challenge model; parameters: species or system rat; settings: glucagon 10 ug/kg + Sandostatin i.v. 2 hr after dosing, serum glucose 0-20 min
Protocol: Jugular vein cannulated male CD rats (220-260 g) (Charles Rivers, Raleigh, N.C.) were received 1-2 days after cannulation, housed individually on Alpha-Dri™ bedding (Shepherd Specialty Papers, Inc., Kalamazoo, Mich.) with free access to food (Lab Diet 5001, PMI Nutrition International, Brentwood, Mo.) and water and maintained on a 12 h light/dark cycle at 21° C. and 50% relative humidity for 3-4 days prior to the glucagon challenge studies. On the day of the study, the rats were sorted by body weight into treatment groups (N=4-5) and housed individually in shoe box cages with clean Alpha-dri bedding. The cannula lines were opened by removal of 0.2 ml blood and flushed with 0.2 ml sterile saline. After a one hour acclimation, blood samples were collected to determine basal glucose and the rats were orally dosed with vehicle (5% DMSO: 30% Solutol HS15: 20% PEG400: 45% 25 mM N-methylglucamine) or drug (5 ml/kg). Two hr after drug dosing, a time zero blood sample (0.4 ml) was collected for determination of glucose and the rats were dosed through the jugular vein with Sandostatin, 0.5 mg/kg, (Novartis Pharmaceuticals Corp., East Hanover, N.J.) and glucagon, 10 ug/kg (Bedford Laboratories, Bedford, Ohio). Blood samples were collected after 10 and 20 min for glucose determination. Whole blood was placed in a Terumo Capiject blood collection tube (Terumo Medical. Corp., Elkton, Md.), allowed to sit at room temperature for 20-30 minutes and then centrifuged (3,000×G) to obtain serum. Serum levels of glucose were determined using an Olympus AU640™ clinical chemistry immuno-analyzer (Olympus America Inc., Melville, N.Y.). The % reduction (% R) of the vehicle glucose AUG was calculated for each drug treatment using the formula % reduction=100*1−(AUG drug/AUC vehicle), where AUG was calculated from serum glucose values using the equation AUG=(T0+T10)/2*10+(T10+T20)/2*10−(T0*20).

IC50 [1]: 5 nM
Compound: COCc1cc(C)c(NC(=O)Nc2cc(-c3ccc(OC)nc3)ccc2C(=O)N[C@H](C(=O)O)[C@@H](C)OC(C)(C)C)c(C)c1 [Example 1, O-(1,1-Dimethylethyl)-N-({2-{[({2,6-dimethyl-4-[(methyloxy)methyl]phenyl}amino)carbonyl]amino}-4-[6-(methyloxy)-3-pyridinyl]phenyl}carbonyl)-L-threonine]
% R (% reduction of the vehicle glucose AUC) (male CD rats; 0.5 mg/kg oral): 32% | % R (% reduction of the vehicle glucose AUC) (male CD rats; 2 mg/kg oral): 53% | % R (% reduction of the vehicle glucose AUC) (male CD rats; 5 mg/kg oral): 63% | % R (% reduction of the vehicle glucose AUC) (male CD rats; 15 mg/kg oral): 70%
